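The compound was tested at five concentrations on cells cultured in 96-well plates, with a 48-hour exposure period. Abbreviation: GI50, concentration required for 50% inhibition of growth. The concentration for full growth arrest is given as TGI.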
Columns and labels:
Experiment in all cases: growth of human tumour cells (NCI), 48 h
A498 renal = test system: A498 renal
NCI-H522 lung = test system: NCI-H522 lung
SK-MEL-28 melanoma = test system: SK-MEL-28 melanoma
ACHN renal = test system: ACHN renal
HCT-116 colon = test system: HCT-116 colon
EKVX NSCLC = test system: EKVX NSCLC
SR leukemia = test system: SR leukemia
UACC-62 melanoma = test system: UACC-62 melanoma
CCRF-CEM leukemia = test system: CCRF-CEM leukemia
PC-3 prostate = test system: PC-3 prostate

Compound | TGI (A498 renal) [µM] | TGI (NCI-H522 lung) [µM] | TGI (SK-MEL-28 melanoma) [µM] | TGI (ACHN renal) [µM] | TGI (HCT-116 colon) [µM] | TGI (EKVX NSCLC) [µM] | TGI (SR leukemia) [µM] | TGI (UACC-62 melanoma) [µM] | TGI (CCRF-CEM leukemia) [µM] | TGI (PC-3 prostate) [µM] | GI50 (A498 renal) [µM] | GI50 (NCI-H522 lung) [µM] | GI50 (SK-MEL-28 melanoma) [µM] | GI50 (ACHN renal) [µM] | GI50 (HCT-116 colon) [µM] | GI50 (EKVX NSCLC) [µM] | GI50 (SR leukemia) [µM] | GI50 (UACC-62 melanoma) [µM] | GI50 (CCRF-CEM leukemia) [µM] | GI50 (PC-3 prostate) [µM]
CN(C)N1C(=O)SCC(c2ccccc2)(c2ccccc2)C1=O | > 100 | > 100 | > 100 | > 100 | > 100 | > 100 | > 100 | > 100 | > 100 | > 100 | – | – | – | – | – | – | – | – | – | –
C=C1C(=O)O[C@H]2[C@H]1CC/C(COC(=O)N[C@H]1C[C@H](O[C@H]3C[C@](O)(C(=O)CO)Cc4c(O)c5c(c(O)c43)C(=O)c3c(OC)cccc3C5=O)O[C@@H](C)[C@H]1O)=C\CC[C@@]1(C)O[C@@H]21 | 29.4 | 1.68 | 4.67 | > 50 | 5.58 | > 50 | 7.12 | 7.02 | 2.28 | 30.8 | 6.85 | 0.772 | 1.51 | 41.3 | 1.72 | 23.3 | 1.02 | 1.69 | 0.672 | 7.8
COc1ccc2c(c1)C(=O)/C(=C/c1cccc(OCC(=O)Nc3nc(C)c(C)s3)c1)O2 | 10.7 | 0.107 | 1.72 | 0.779 | 0.564 | 15.3 | 0.0364 | 7.98 | 0.0337 | 0.226 | 1.75 | 0.0517 | 0.504 | 0.139 | 0.17 | 0.677 | 0.0184 | 1.97 | 0.0168 | 0.0417
CCn1cc(/C=C2\Oc3cc(OCC#N)ccc3C2=O)c2cc(OC)ccc21 | > 100 | 28.5 | > 100 | > 100 | > 100 | > 100 | > 100 | > 53.4 | > 100 | 53.8 | 10.3 | 2.46 | 6.71 | 0.847 | 0.143 | 1.44 | 0.102 | 0.171 | 0.113 | 0.218
O=C1/C(=C\c2ccco2)Oc2ccccc21 | > 100 | > 100 | > 100 | > 100 | > 100 | > 100 | > 100 | > 100 | > 100 | > 100 | – | – | – | – | – | – | – | – | – | –
CCCC1(CN2c3ccccc3Sc3ccc(Cl)cc32)CCN(CC)C1 (stereo not given) | 3.12 | 3.64 | 3.48 | 3.31 | 3.29 | 3.55 | > 100 | 3.6 | > 100 | 3.38 | 1.6 | 1.9 | 1.92 | 1.76 | 1.81 | 1.77 | 3.17 | 1.92 | 3.49 | 1.68
